Experimental data reported in patent US20240186515A1, “ELECTROLYTE SOLUTION FOR REDOX FLOW BATTERY INCLUDING ORGANIC ACTIVE MATERIAL AND REDOX FLOW BATTERY USING THE SAME” (priority 2022, published 2024).

Test: Cyclic voltammetry of electrolyte solution
Assay type: physicochemical
Details: for Number of reaction electrons: reversibly usable electrons
Text: For analysis of electrochemical properties of an electrolyte solution, cyclic voltammetry (CV) was used. The cyclic voltammetry is an electrochemical measurement method which is commonly used a lot, and is a method of obtaining a current-potential curve by scanning an electrode potential of a working electrode with a triangular wave at a constant speed. A method of recording a current flowing when potential is changed in proportion to time as a potential-current curve is called a potential sweep method, and when the potential is repeatedly applied, it is called cyclic voltammetry. The cyclic voltammetry allows qualitative understanding of a reaction occurring on an electrode surface such as potential at the reaction occurs, reaction speed, and reactivity of a reaction product, and is widely used in the electrochemical field.
During cyclic voltammetry measurement, a potential scanning speed was applied at 10 to 300 mV/s, and the measurement results are shown in FIGS. 1 to 3.

[1] = 0.01 M in 1 M Na2SO4, glassy carbon working electrode

SMILES | Negative electrode one-electron reaction potential [1] [V vs. NHE] | Reduction and oxidation currents, negative electrode area, first electron reaction (FIG. 1, text) | Reduction and oxidation currents, negative electrode area, second electron reaction (FIG. 1, text) [V] | Reversibility of second electron (two-electron) reaction in negative electrode area (cyclic voltammetry curves) | Positive electrode reaction potential [1] [V vs. NHE] | Two-electron reduction and oxidation currents derived from hydroquinone, positive electrode area (FIG. 1, text) [V] | Number of reaction electrons | Negative electrode two-electron reaction potential [1] [V vs. NHE] | Reversibility in positive electrode area (cyclic voltammetry curves, 100 mV s^−1, FIG. 3)
C[n+]1ccc(-c2cc[n+](C)cc2)cc1.O.[Cl-].[Cl-] [Comparative Example 1, methyl viologen dichloride hydrate] | −0.54 | around −0.54 V | ~−0.75 | irreversible |  |  |  |  | 
C[n+]1ccc(-c2cc[n+](-c3cc(O)ccc3O)cc2)cc1 [Comparative Example 2] | −0.34 | around −0.34 V | ~−0.65 | did not reach a target level | 0.59 | 0.59 | 1 |  | 
C[N+](C)(C)CCC[n+]1ccc(-c2cc[n+](-c3cc(O)ccc3O)cc2)cc1 [Example 1] | −0.48 |  |  | showed a reversible shape | 0.46 |  | 2 | −0.80 | reversible behavior was shown
